Data on 18 molecules can be found in patent US8217069B2, “Nitrogenated fused ring derivative, pharmaceutical composition comprising the same, and use of the same for medical purposes” (Kissei Pharmaceutical Co., Ltd., priority 2007, dated 2012).

The target in the test is T1, human GnRH receptor1 (GnRHR1) (Homo sapiens, UniProt P30968).
T1 construct: expressed in transfected cells
T1 sequence (P30968 1-328): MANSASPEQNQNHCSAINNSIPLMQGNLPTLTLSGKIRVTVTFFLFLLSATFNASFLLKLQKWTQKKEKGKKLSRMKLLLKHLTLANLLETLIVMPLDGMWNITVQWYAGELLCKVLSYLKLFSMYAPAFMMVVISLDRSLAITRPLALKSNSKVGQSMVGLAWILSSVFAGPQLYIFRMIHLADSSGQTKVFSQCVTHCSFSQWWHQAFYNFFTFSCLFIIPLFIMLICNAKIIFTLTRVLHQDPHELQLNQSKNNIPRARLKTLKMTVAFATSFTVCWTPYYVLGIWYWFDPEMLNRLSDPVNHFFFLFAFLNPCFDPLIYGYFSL
Kind of test: Assay of inhibitory effect for the change of calcium levels in GnRH-stimulated cells (hGnRHR1#1 HEK293 cells, FLIPR Calcium Assay Kit). The following applies: drug concentration at which 50% GnRH-stimulated intracellular calcium flux was inhibited, 10 nM GnRH. It is filed as cell-based. The source says: 1) Cloning and Construction of the Vector Expressing Human GnRH Receptor1 (GnRHR1)
Using cDNA derived from human pituitary (BECTON DICKINSON) as a template, the DNA fragment coding 45 to 1115 bp of human GnRHR1 (Accession No. L03380), which was reported by Kakar et al., was amplified by PCR method and inserted into the multi-cloning site of pcDNA3.1(+) (Invitrogen). The DNA sequence inserted was perfectly matched to the previously reported sequence.
2) Establishment of Cell Line Stably Expressing Human GnRH Receptor1 HEK293 Cells
The expression vector of human GnRHR1 gene, was digested by XhoI into a linear DNA. The linear DNA was transfected into HEK293 cells by means of lipofection (Lipofectamine-2000: Invitrogen). Neomycin resistant cell lines were selected by culture in the medium containing G418 (Invitrogen) at 1 mg/mL, and then the change of calcium levels in GnRH-stimulated cells was measured by the method described below.
3) Assay of Inhibitory Effect for the Change of Calcium Levels in GnRH-Stimulated Cells
Antagonizing effect of compounds for human GnRHR1 was evaluated by depression of calcium levels in GnRH-stimulated cells. hGnRHR1#1 cells were seeded into a 96-well culture plate at a density of 1.5×10^5 cells/well and cultured for a day. After removing the culture medium, cells were washed with 200 μL per well of the washing buffer (Hanks' Balanced Salt Solutions, 20 mM N-2-hydroxyethylpiperazine-N′-2-ethanesulfonic acid, 1.3 mM calcium chloride, 0.5 mM magnesium chloride, 0.4 mM magnesium sulfate). One hundred μL of the Ca^2+ sensitive dye solution (FLIPR Calcium Assay Kit, Molecular Devices) was added to the well, and the cells were incubated for 1 hour at 37° C. in 5% CO2 incubator. Then, intracellular calcium levels were determined under the following condition by using FLEX STATION (Molecular Devices). In the equipment, which was warmed to 37° C., 50 μL of test compound diluted with the measurement buffer (the washing buffer with 0.1% Albumin bovine serum) was added to the well. After 1 minute, 50 μL of 10 nM GnRH was added to the well. The drug concentration, at which 50% GnRH-stimulated intracellular calcium flux was inhibited (IC50 value), was calculated using logit plot (Table 106).
A general note: A change in cytosolic calcium serves as a functional read-out for many receptors and channels.
As usually defined, the IC50 is the concentration that inhibits the measured activity by half. As for `CNC(=O)COc1cc(Cl)c(-n2c(=O)[nH]c3c(OC)nc(C(C)=O)nc32)cc1OCc1c(OC)ccc(F)c1F` [Example 346], the IC50 was found to be 38 nM. In the case of `COc1ccccc1N(C)S(=O)(=O)c1ccc(Cl)c(-n2c(=O)[nH]c3c(OC)ncnc32)c1` [Example 199] it was 46 nM; in that of `COc1ccc(F)c(F)c1COc1cc(-n2c(=O)[nH]c3c(OC)nc(CF)nc32)c(Cl)cc1OCC(=O)NCCO` [Example 341], 32 nM. In the case of `COc1cccc(F)c1C(C)(C)S(=O)(=O)c1ccc(Cl)c(-n2c(=O)[nH]c3c(C)cc(C(=O)O)nc32)c1` [Example 128] it was 24 nM.

Turning to `COc1cccc(F)c1COc1cc(-n2c(=O)[nH]c3c(OC)nc(CO)nc32)c(Cl)cc1OCC(=O)O` [Example 274], the IC50 is 15 nM. In the case of `COc1cc(Cl)c(-n2c(=O)[nH]c3c(OC)ncnc32)cc1OCc1c(OC)ccc(F)c1F` [Example 39] it was 27 nM. For the molecule `CCNC(=O)COc1cc(Cl)c(-n2c(=O)[nH]c3c(C(C)=O)nc(C)nc32)cc1OCc1c(F)cccc1OC` [Example 452], the IC50 turned out to be 19 nM. Take `COc1cc(Cl)c(-n2c(=O)[nH]c3c(C)nc(N)nc32)cc1OCc1c(OC)ccc(F)c1F` [Example 381, 2-Amino-9-[2-chloro-5-(2,3-difluoro-6-methoxybenzyloxy)-4-methoxyphenyl]-6-methyl-7,9-dihydro-8H-purin-8-one]: the IC50 was 36 nM. In the case of `COc1cc(Cl)c(-n2c(=O)[nH]c3c(OC)nc(CCO)nc32)cc1OCc1c(F)cccc1OC` [Example 314, 9-[2-Chloro-5-(2-fluoro-6-methoxybenzyloxy)-4-methoxyphenyl]-2-(2-hydroxyethyl)-6-methoxy-7,9-dihydro-8H-purin-8-one], the IC50 stood at 23 nM.

Consider `Cc1cc(/C(N)=N/O)nc2c1[nH]c(=O)n2-c1cc(S(=O)(=O)N2CCCCc3ccccc32)ccc1Cl` [Example 160, 3-[2-Chloro-5-(2,3,4,5-tetrahydro-1H-1-benzoazepin-1-ylsulfonyl)phenyl]-5-hydroxycarbamimidoyl-7-methyl-1,3-dihydro-2H-imidazo[4,5-b]pyridin-2-one], for which the IC50 was 99 nM.

Turning to `CC(C)(c1ccccc1)S(=O)(=O)c1ccc(Cl)c(-n2c(=O)[nH]c3ccc(C(=O)O)nc32)c1` [Example 35], the IC50 was 193 nM. On to `COc1ccc(F)c(F)c1CN(C(C)=O)c1ccc(Cl)c(-n2c(=O)[nH]c3c(C)cc(C(=O)O)nc32)c1` [Example 81], for which the IC50 is 32 nM. With `COc1cccc(F)c1COc1cc(-n2c(=O)[nH]c3c(OC)nc(CF)nc32)c(Cl)cc1OCCO` [Example 251] the figure was 54 nM. In the case of `COc1cc(F)c(-n2c(=O)[nH]c3c(C)cc(C(=O)O)nc32)cc1SC(C)(C)c1ccccc1Cl` [Example 109] it was 36 nM; in that of `COc1ccc(F)c(F)c1COc1cc(-n2c(=O)[nH]c3c(OC)nc(C(F)F)nc32)c(Cl)cc1OCC(=O)N(C)C` [Example 345], 17 nM.

In the case of `COc1ncnc2c1[nH]c(=O)n2-c1cc(OCc2c(OCCNC(C)=O)ccc(F)c2F)ccc1Cl` [Example 262], the IC50 stood at 62 nM.

As to `Cc1cc(C(=O)O)nc2c1[nH]c(=O)n2-c1cc(S(=O)(=O)N2CCCCc3ccccc32)ccc1F` [Example 93], the IC50 came out at 20 nM. In the case of `Cc1cc(CO)nc2c1[nH]c(=O)n2-c1cc(S(=O)(=O)N2CCCCc3ccccc32)ccc1Cl` [Example 152, 3-[2-Chloro-5-(2,3,4,5-tetrahydro-1H-1-benzoazepin-1-ylsulfonyl)phenyl]-5-hydroxymethyl-7-methyl-1,3-dihydro-2H-imidazo[4,5-b]pyridin-2-one], the IC50 was determined as 32 nM.
